# According to patent US5607937A, “Piperazides of substituted phenylalanine derivatives as thrombin inhibitors” (priority 1993, dated 1997):
# Where “and” joins values, the source holds several entries; their conditions need not be identical. Equal values may be shown once. Where a name gives a salt, the structure may show the parent alone. Read-outs that look alike come from different tables or passages of the source.
# How the values were obtained:
# plasmin = plasmin (Homo sapiens, UniProt P00747); test: inhibition of plasmin, dissociation constant Ki
# tPA = tPA (Homo sapiens, UniProt P00750); test: inhibition of tPA, dissociation constant Ki
# trypsin = molecular target: T1, trypsin (Bos taurus, UniProt P00760); test: inhibition of trypsin, dissociation constant Ki; assay type: biochemical; set-up: thrombin and the related enzymes trypsin, plasmin, factor Xa, factor XIIa; details: Table 1; read-out: Ki, Trypsin
# T1 sequence (P00760 24-246): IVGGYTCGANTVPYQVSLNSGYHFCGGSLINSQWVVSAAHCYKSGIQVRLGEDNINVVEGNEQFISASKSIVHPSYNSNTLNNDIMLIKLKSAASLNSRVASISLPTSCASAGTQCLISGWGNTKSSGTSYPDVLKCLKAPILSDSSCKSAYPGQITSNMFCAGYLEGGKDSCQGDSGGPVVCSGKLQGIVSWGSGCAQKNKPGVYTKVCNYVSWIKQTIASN
# Protocol: (§1) The biological activity of the compounds of the present invention was determined in vitro as well as in vivo.
# factor XIIa = molecular target: T2, factor XIIa (Homo sapiens, UniProt P00748); test: inhibition of factor XIIa, dissociation constant Ki
# T2 sequence (P00748 373-615 limits assumed): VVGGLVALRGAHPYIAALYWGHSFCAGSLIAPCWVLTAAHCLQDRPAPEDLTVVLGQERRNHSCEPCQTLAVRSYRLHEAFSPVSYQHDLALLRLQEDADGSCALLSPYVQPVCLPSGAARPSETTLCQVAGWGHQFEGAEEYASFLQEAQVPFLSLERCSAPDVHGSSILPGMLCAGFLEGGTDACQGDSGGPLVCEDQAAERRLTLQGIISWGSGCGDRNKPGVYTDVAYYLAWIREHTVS
# plasma kallikrein = plasma kallikrein (Homo sapiens, UniProt P03952); test: inhibition of plasma kallikrein, dissociation constant Ki
# [1] = system: coagulation in human plasma; test: thrombin time (TT) in human plasma
# factor Xa = factor Xa (Bos taurus, UniProt P00743); test: inhibition of factor Xa, dissociation constant Ki; assay type: biochemical; details: Table 1
# Protocol: as §1
# [2] = system: coagulation in human plasma; test: activated partial thromboplastin time (aPTT) in human plasma
# glandular kallikrein = glandular kallikrein (Sus scrofa, UniProt P00752); test: inhibition of glandular kallikrein, dissociation constant Ki
# [3] = system: coagulation in human plasma; test: prothrombin time (PT, Quick value) in human plasma
# thrombin [4] = molecular target: T3, thrombin (Bos taurus, UniProt P00735); test: biochemical
# thrombin [5] = molecular target: T3, thrombin; details: read-out: Ki, Thrombin; Table 1
# Chain of factor Xa (P00743 234-492 limits assumed): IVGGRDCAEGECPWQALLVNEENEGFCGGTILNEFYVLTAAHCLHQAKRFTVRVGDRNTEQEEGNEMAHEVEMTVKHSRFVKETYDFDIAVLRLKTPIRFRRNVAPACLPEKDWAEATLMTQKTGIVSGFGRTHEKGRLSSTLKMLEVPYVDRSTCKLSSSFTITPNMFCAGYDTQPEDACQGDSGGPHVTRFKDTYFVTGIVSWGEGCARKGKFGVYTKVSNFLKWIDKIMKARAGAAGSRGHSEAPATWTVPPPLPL
# Chain of factor Xa (P00743 41-180 partner limits assumed): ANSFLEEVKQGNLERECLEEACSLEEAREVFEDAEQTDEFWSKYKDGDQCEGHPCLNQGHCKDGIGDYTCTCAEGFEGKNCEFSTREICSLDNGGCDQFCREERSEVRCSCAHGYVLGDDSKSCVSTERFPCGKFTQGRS
# Chain of glandular kallikrein (P00752 8-246): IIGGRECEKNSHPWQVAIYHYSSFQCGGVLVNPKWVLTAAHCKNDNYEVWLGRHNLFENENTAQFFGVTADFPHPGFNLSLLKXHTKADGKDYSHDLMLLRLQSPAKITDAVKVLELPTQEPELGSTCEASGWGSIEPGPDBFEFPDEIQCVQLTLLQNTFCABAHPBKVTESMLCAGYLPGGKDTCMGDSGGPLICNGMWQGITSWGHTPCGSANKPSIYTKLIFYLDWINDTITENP
# Chain of plasmin (P00747 581-810 limits assumed): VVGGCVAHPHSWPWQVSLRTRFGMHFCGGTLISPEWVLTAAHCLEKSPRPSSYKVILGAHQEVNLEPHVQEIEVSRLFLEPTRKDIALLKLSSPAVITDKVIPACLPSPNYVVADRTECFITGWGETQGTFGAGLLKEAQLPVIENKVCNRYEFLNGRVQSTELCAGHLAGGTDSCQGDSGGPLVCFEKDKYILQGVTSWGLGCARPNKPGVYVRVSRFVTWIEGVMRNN
# Chain of plasmin (P00747 97-580 partner limits assumed): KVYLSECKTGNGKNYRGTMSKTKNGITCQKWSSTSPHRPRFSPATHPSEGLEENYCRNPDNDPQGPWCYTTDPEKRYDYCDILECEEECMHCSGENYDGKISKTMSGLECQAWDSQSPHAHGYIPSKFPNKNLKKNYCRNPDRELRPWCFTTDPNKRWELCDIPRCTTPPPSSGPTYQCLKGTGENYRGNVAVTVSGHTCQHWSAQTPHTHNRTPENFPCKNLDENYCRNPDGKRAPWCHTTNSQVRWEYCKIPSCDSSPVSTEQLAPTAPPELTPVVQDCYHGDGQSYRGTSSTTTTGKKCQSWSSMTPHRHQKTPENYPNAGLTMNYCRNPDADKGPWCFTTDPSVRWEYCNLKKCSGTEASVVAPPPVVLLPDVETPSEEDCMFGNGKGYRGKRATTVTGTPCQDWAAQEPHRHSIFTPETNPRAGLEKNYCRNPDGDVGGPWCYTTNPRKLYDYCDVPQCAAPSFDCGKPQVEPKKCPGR
# Chain of plasma kallikrein (P03952 391-638 limits assumed, species assumed): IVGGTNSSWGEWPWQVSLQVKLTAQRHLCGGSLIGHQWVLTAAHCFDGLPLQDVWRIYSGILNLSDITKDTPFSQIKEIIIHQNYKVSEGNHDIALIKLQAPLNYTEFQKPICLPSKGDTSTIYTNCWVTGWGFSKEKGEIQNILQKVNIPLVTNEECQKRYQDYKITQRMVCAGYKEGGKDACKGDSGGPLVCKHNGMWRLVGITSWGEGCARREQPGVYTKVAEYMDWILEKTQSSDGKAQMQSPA
# Chain of plasma kallikrein (P03952 20-390 partner limits assumed, species assumed): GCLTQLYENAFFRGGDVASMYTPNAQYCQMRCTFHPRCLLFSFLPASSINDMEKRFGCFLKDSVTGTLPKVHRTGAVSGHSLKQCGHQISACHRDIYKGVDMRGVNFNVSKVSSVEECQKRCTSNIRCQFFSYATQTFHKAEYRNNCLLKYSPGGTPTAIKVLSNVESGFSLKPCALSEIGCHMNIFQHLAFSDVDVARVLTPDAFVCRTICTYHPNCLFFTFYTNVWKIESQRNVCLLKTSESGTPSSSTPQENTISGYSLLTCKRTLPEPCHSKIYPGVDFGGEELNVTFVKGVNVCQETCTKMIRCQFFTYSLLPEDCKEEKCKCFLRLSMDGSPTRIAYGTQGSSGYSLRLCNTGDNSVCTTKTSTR
# Chain of tPA (P00750 36-562): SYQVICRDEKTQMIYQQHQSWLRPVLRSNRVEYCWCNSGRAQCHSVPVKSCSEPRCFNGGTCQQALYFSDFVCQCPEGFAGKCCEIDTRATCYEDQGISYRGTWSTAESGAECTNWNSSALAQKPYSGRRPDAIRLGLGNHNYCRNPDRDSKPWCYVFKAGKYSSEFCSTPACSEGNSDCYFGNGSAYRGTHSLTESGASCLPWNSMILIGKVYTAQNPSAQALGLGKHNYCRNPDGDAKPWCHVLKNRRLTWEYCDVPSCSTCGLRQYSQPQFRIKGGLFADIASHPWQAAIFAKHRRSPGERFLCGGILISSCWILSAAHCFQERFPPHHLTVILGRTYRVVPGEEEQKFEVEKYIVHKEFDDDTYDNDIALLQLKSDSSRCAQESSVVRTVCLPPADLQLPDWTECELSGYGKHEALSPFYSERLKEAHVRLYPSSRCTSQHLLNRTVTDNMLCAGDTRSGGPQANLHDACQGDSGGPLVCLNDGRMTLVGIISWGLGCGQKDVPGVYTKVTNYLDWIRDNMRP
Compound,Ki (plasmin),Ki (tPA),Ki (trypsin),Ki (factor XIIa),Ki (plasma kallikrein),Concentr. to double the Thrombin time [1],Ki (factor Xa),Concentr. to double the aPTT [2],Ki (glandular kallikrein),Concentr. to double the Prothrombin time [3],Ki (thrombin [4]),"Ki (plasmin; read-out: Ki, Plasmin, Table 1)",Ki (thrombin [5]),also measured
CC(=O)N1CCN(C(=O)C(Cc2cccc(C(=N)N)c2)NS(=O)(=O)c2ccc3c(c2)C(=O)c2ccccc2C3=O)CC1 (centres unmarked) [Compound 4],8.6 µM,> 1000 µM,0.026 µM,52 µM,7 µM,0.085 µmol/L,4.1 µM,1.2 µmol/L,> 1000 µM,2.0 µmol/L,0.014 µM,,,concentration to double the TT [1]: less than 10^-7 mol/1; concentration to double the aPTT [2]: ≤ 1 μmol/1; concentration to double the PT [3]: ≤ 1 μmol/1
CN(C)C(=O)N1CCN(C(=O)C(Cc2cccc(C(=N)N)c2)NS(=O)(=O)c2ccc3ccccc3c2)CC1 (centres unmarked) [AMD 2-Naph CO-N(Me)2],6.2 µM,> 1000 µM,0.049 µM,,,,24 µM and 22 µM,,> 1000 µM,,0.013 µM,6.1 µM,0.0088 µM,"Ki (factor XIIa; Ki, Factor XIIa, Table 1): 200 µM and 130 µM; Ki (plasma kallikrein; Ki, Plasma kallikr., Table 1): 47 µM and 28 µM"
"Cc1c(C)c(S(=O)(=O)N[C@@H](Cc2cccc(C(=N)N)c2)C(=O)N2CCN(S(C)(=O)=O)CC2)c(C)c2c1OC(C)(C)CC2 [Compound 10, Pmc-3-amidino-(L)-phenylalanine-4-methylsulfonyl piperazide hydrochloride]",,600 µM,,> 1000 µM,110 µM,0.10 µmol/L,37 µM,0.44 µmol/L,> 1000 µM,0.8 µmol/L,0.0053 µM,,,
COc1cc(C)c(S(=O)(=O)N[C@@H](Cc2cccc(C(=N)N)c2)C(=O)N2CCN(S(C)(=O)=O)CC2)c(C)c1C [Compound 9],8.2 µM,600 µM,0.86 µM,> 1000 µM,170 µM,0.12 µmol/L,48 µM,0.57 µmol/L,> 1000 µM,1.1 µmol/L,0.02 µM,,,
CN(C)C(=O)N1CCN(C(=O)C(Cc2cccc(C(=N)N)c2)NS(=O)(=O)c2cccc3ccccc23)CC1 (centres unmarked) [AMD 1-Naph CO2 N(Me)2],,,0.25 µM,,,,5.9 µM,,,,,4.8 µM,0.068 µM,"Ki (tPA; read-out: Ki, tPA, Table 1): 270 µM; Ki (factor XIIa; read-out: Ki, Factor XIIa, Table 1): 72 µM; Ki (plasma kallikrein; read-out: Ki, Plasma kallikr., Table 1): 37 µM; Ki (glandular kallikrein; read-out: Ki, Gland. kallikr., Table 1): > 1000 µM"
N=C(N)c1cccc(CC(NS(=O)(=O)c2ccc3ccccc3c2)C(=O)N2CCN(S(=O)(=O)c3ccccc3)CC2)c1 (centres unmarked) [AMD 2-Naph SO2 -Ph],,> 1000 µM,,120 µM,36 µM,,24 µM,,> 1000 µM,,,19 µM,0.041 µM,
